{"source": "patent US10369123B2", "about": "“Perk activator for the treatment of neurodegenerative diseases” (DEUTSCHES ZENTRUM FÜR NEURODEGENERATIVE ERKRANKUNGEN E.V. …, priority 2014, dated 2019)", "key": {"[1]": {"system": "tau", "assay": "Western blot of tau conformation and phosphorylation, annonacin model", "format": "cell-based, human", "details": "annonacin 25 nM + PERK activator, 48 h", "method": "Nunc™ Nunclon™ Delta 6-well (for protein and mRNA) or 48-well (for cell assays) plates (Thermo Fisher Scientific, Waltham, Mass., USA) were coated with 100 μg/ml poly-L-lysine (Sigma-Aldrich, St. Louis, Mo., USA) and 5 μg/ml fibronectin (Sigma-Aldrich). LUHMES (Lund Human Mesencephalic) cells, derived from human embryonic ventral mesencephalic cells by conditional immortalization (Tet-off v-myc over-expression) were seeded out in a concentration of 130,000 cells/cm^2 to achieve a confluence of 50%. They were then differentiated for 8 days in a medium of DMEM/F12 (Sigma-Aldrich), 1 μg/ml tetracycline, […] and 490 μg/ml dbcAMP into post-mitotic neurons with a dopaminergic phenotype (Lotharius et al. 2005).\nFor all experiments with annonacin, the medium was replaced during the intoxication period with new medium containing glucose levels reduced to 250 μM, i.e. the physiological concentration in the human brain.\nProtein was extracted by scraping the cells from the culture plate with Mammalian Protein Extraction Reagent (M-PER, Thermo Fisher Scientific) and 1× cOmplete Protease Inhibitor Cocktail Tablets (Hoffmann-La Roche, Basel, Switzerland) and 1× PhosSTOP Phosphatase Inhibitor Cocktail Tablets (Hoffmann-La Roche). For pNRF2 blots, cells were extracted with 2% SDS tris-buffer instead of M-PER in order to obtain whole cell extracts and not to lose the nuclear fraction. The protein solution was frozen at −80° C., immediately after retrieval, for a minimum of two hours. The solution was then thawed on ice, vortexed, centrifuged at 5000 g for 15 min at 4° C. and the supernatant retrieved. Protein concentrations were determined using the BCA kit (Thermo Fisher Scientific) by heating the samples at 60° C. for 30 min and measuring the absorption on the NanoDrop 2000c Spectrophotometer (Thermo Fisher Scientific).\n20 μg of protein (unless indicated otherwise) were adjusted to equal concentrations between samples by dilution with M-PER and subsequently heated at 95° C. for 5 minutes with Roti®-Load 1 (Carl Roth). SDS-PAGE was performed using Any kD™ Mini-PROTEAN® TGX™ Gels (BioRad, Berkeley, Calif., USA) in a tris-glycine running buffer. The protein was blotted onto PVDF membrane (BioRad) at 70 V for 65 minutes on ice. The membrane was blocked with 1× Roti®-Block solution (Carl Roth) for 1 h and then incubated at 4° C. overnight under gentle shaking with the primary antibody (see Table 5) in TBS with 5% BSA (Cell Signaling Technology) and 0.05% TWEEN (Sigma-Aldrich).\nThe membranes were then washed and incubated with the species specific HRP-bound secondary antibody (Vector Laboratories, Burlingame, Calif., USA) at 1:2500 in 1× Roti®-Block solution for 2 h, followed by further washing and exposure to Clarity Western ECL Substrate (BioRad) or, in the case of MC1 and 4R-tau, to Amersham™ ECL™ Prime (GE Healthcare). Chemiluminescence was detected with the Gel Doc™ XR System (BioRad) and analyzed with Image Lab™ software (BioRad), followed by graphical and statistical analysis with Prism 6 (GraphPad Software)."}, "[2]": {"system": "wild type and P301S tau mice", "format": "in vivo, mouse", "method": "All animal work was conducted either on CR57BL/6 mice, obtained from Charles River Laboratories, Wilmington, Mass., USA, or on homozygous transgenic mice overexpressing human tau with the P301S mutation on a C57BL/6 background, originally developed by Michel Goedert (Xu et al. 2014), obtained by own breeding. Animals were kept at 23±1° C. under standard 12 h light-dark cycle with free access to food and water. They were handled according to the EU Council Directive 2010/63/EU, the Guide for the Care and Use of Laboratory Animals (National Research Council 2011) and the guidelines of the local institutional committee. The experiments were authorized by the local authority “Regierung von Oberbayern” under application number 55.2-1-54-2532-165-13. […]\nFor the efficacy trial in the early disease stage (Xu et al. 2014), P301S mice (n=8 per group) and wild type littermates (n=9 per group) received once daily i.p. injections of 2 mg/kg CCT020312 or equivalent volumes of saline from 9 to 14 weeks of age; they were analyzed with the Morris Water Maze in the 15th week of age.\nFor the efficacy trial in the late disease stage (Xu et al. 2014), P301S mice and wild type littermates received once daily i.p. injections of 2 mg/kg CCT020312 or saline from 17 to 22 weeks of age (n=12 for CCT020312 treated P301S mice, n=9 for other groups); they were analyzed with the Rotarod test in the 23rd week of age."}, "[3]": {"system": "P301S tau transgenic mice", "assay": "Rotarod test", "format": "in vivo, mouse", "details": "2 mg/kg i.p. once daily for 6 weeks, 23 weeks of age, vs saline", "method": "All animal work was conducted either on CR57BL/6 mice, obtained from Charles River Laboratories, Wilmington, Mass., USA, or on homozygous transgenic mice overexpressing human tau with the P301S mutation on a C57BL/6 background, originally developed by Michel Goedert (Xu et al. 2014), obtained by own breeding. Animals were kept at 23±1° C. under standard 12 h light-dark cycle with free access to food and water. They were handled according to the EU Council Directive 2010/63/EU, the Guide for the Care and Use of Laboratory Animals (National Research Council 2011) and the guidelines of the local institutional committee. The experiments were authorized by the local authority “Regierung von Oberbayern” under application number 55.2-1-54-2532-165-13.\n5 mg of the PA compound CCT020312 (EMD Millipore, Billerica, Mass., USA) was first dissolved in 100 μl sterile DMSO (AppliChem, Darmstadt, Germany) and then diluted in sterile saline (B. Braun Medical, Melsungen, Germany) to achieve a stock solution of […].\nFor the efficacy trial in the late disease stage (Xu et al. 2014), P301S mice and wild type littermates received once daily i.p. injections of 2 mg/kg CCT020312 or saline from 17 to 22 weeks of age (n=12 for CCT020312 treated P301S mice, n=9 for other groups); they were analyzed with the Rotarod test in the 23rd week of age. […]"}}, "note": "Entries after “also recorded” stand apart in the source; their conditions may differ. Read-outs that look alike come from different tables or passages of the source.", "data": [{"smiles": "CCN(CC)CCC(=O)N1N=C(c2c(-c3ccccc3)c3cc(Br)ccc3[nH]c2=O)CC1c1ccc(Br)cc1", "note": "(stereo not shown) [CCT020312, 6-bromo-3-[5-(4-bromo-phenyl)-1-(3-diethylamino-propionyl)-4,5-dihydro-1H-pyrazol-3-yl]-4-phenyl-1H-quinolin-2-one]", "values": [{"measurement": "total tau protein (HT7)", "setting": "[1]", "value": "not altered"}, {"measurement": "AD2 (p-Ser-396 and 404) tau phosphorylation", "setting": "[1]; vs annonacin alone", "value": "significantly reduced"}, {"measurement": "CP13 (p-Ser-202) tau phosphorylation", "setting": "[1]; vs annonacin alone", "value": "significantly reduced"}, {"measurement": "MC1 pathological tau conformation", "setting": "[1]; vs annonacin alone", "value": "reversed; also recorded: averted"}, {"measurement": "death or obvious signs of sickness during treatment", "setting": "[2]; aged wild type and P301S tau mice, 2 mg/kg once daily for 6 weeks, until 23 weeks of age", "value": "no CCT020312-treated wild type (n=9) and P301S tau mouse (n=12) died during the treatment period or showed any obvious signs of sickness"}, {"measurement": "death or obvious signs of sickness during treatment", "setting": "[2]; young wild type and P301S tau mice, 2 mg/kg for 6 weeks", "value": "No CCT020312-treated mouse of the wild type group (N=8) and of the P301S tau group (N=8) died during the treatment period or showed any obvious signs of sickness"}, {"measurement": "Rotarod performance (latency to fall)", "setting": "[3]", "value": "significantly improved; also recorded: increased performance"}]}]}
